Assay results as given in patent US10112918B2, “15-oxospiramilactone derivatives, preparation method and uses thereof” (Kunming Institute of Botany, The Chinese Academy of Sciences, priority 2013, dated 2018).
Read-outs that look alike come from different tables or passages of the source.

Columns and labels:
Type in all cases: cell-based
[1] = system: HL-60 (human promyelocytic leukemia cells); test: MTT inhibition of tumor cell growth, HL-60; settings: Homo sapiens
Outline: (§1)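 Compound exposure lasts 48 h at 37° C on cells plated at 5000-10000 per well in serum-containing medium. Viability is read by MTT reduction at 595 nm, and IC50 is computed with the two-point Reed and Muench method.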

[2] = system: SMMC-7721 (human hepatoma cells); test: MTT inhibition of tumor cell growth, SMMC-7721; settings: Homo sapiens
Outline: as §1

[3] = system: A-549 (Human lung adenocarcinoma cells); test: MTT inhibition of tumor cell growth, A-549; settings: Homo sapiens
Outline: as §1

[4] = system: MCF-7 (human breast cancer cells); test: MTT inhibition of tumor cell growth, MCF-7; settings: Homo sapiens
Outline: as §1

[5] = system: SW-480 (human colon cancer cells); test: MTT inhibition of tumor cell growth, SW-480; settings: Homo sapiens
Outline: as §1

[6] = system: Wnt signaling pathway (Top-Flash reporter gene); test: Top-Flash Wnt reporter gene assay in HEK293T cells with Wnt3a conditioned medium; settings: Homo sapiens, HEK-293T, 6 h, 6 h, read-out: IC50 (μM), inhibitory activity on the Wnt signaling pathway
Protocol: HEK293T cells were cultured in DMEM containing 10% fetal bovine serum (Invitrogen) at 37° C., 5% CO2. The cells were passaged every other day. The density was retained at 70˜80% during passage. L cell line (CRL-2647, purchased from the gene bank of ATCC, the US) and the control cell line (CRL-2648, purchased from ATCC, US), which stably secreted mouse Wnt3a protein, were cultured in DMEM containing 50 ug/ml G418 and 10% fetal bovine serum, at 37° C., 5% CO2. When the cells grew to a density of about 70%, the medium was replaced with DMEM containing 10% fetal bovine serum. After continuous culture for 4 days, the culture was collected and centrifuged, and the supernatant was kept so that the Wnt conditioned medium was obtained. After titration assay, the conditioned medium was quick-frozen in liquid nitrogen, and placed at −80° C. for long-term storage, so that the titer was kept unchanged.
The cells were seeded to a 48-well plate at a density of […] cells per well, and transfected 20 h later. The reagents for plasmid transfection were calculated based on the amount in each well of the 48-well plate as following: the total amount of plasmid was 125 ng/well; the plasmid was first added to a serum-free medium (25 μL/well) and mixed well; PLUS reagent (Invitrogen) was then added in an amount of 0.5 μL/well and mixed well, then stood for 15 min; Lipofectamine (Invitrogen) liposome was added in an amount of 0.5 μL/well to serum-free DMEM medium (25 μL/well), and then mixed with the solution containing the plasmid and the PLUS, and stood for 15 min. The cells were cultured in serum-free DMEM medium (100 μL/well), and the final mixture of plasmid, PLUS and Lipofectamine were added to the cells. After incubation for 3 h, the transfection was stopped by the medium containing 10% fetal bovine serum (200 μL/well).
The HEK293T cells used for activity assay of the report gene were transfected by the method as shown in 2). Activity assay of Wnt reporter gene: the amount of plasmid for transfection was 5 ng/well for TOP-flash and 5 ng/well for GFP plasmid as internal standard, with lacZ added to reach a total amount of 125 ng/well. […] After treating for 6 h, Boehringer Mannheim Luci-ferase Assay Kit was used to lyse cells (200 μL/well). 50 μL from each well was pipetted into a 96-well plate. The indensity of GFP protein in the cell lysate was measured by fluorimeter FL600 (BIO-TEK Inc. Winooski, Vt.), and taken as internal standard for cell transfection efficiency. 10 μL substrate of luciferase was then added to each well, and the activity of luciferase was measured by Micro Lumate Plus (Perkin Elmer Inc. Wellesley, Mass.) luminometer. Finally, GFP indensity was used as internal standard to calibrate the activity of luciferase, i.e. the activity of Wnt reporter gene.
Calculation of IC50 (taking the calculation of IC50 of the Wnt signaling pathway for example): background (the activity as measured in the groups treated with a conditioned medium containing DMSO only) was subtracted from the reporter gene activity as measured in the groups treated by Wnt3a conditioned medium with or without the compound to be tested at different concentrations; and the obtained value was defined as the activity of the reporter gene induced by Wnt or the residual activity of the reporter gene after adding the compound to be tested. The residual activity was normalized by the activity induced by Wnt to get the relative residual activity. Then combine with the concentrations of the compound to be tested to plot a linear graph, and a dose-effect curve was fitted based on 4-parameter logistic fit. IC50 of the Wnt signaling pathway is determined as the concentration at which the relative residual activity is 0.5.

[7] = HL-60, 48 h, Table 1, 7-hydroxy derivatives of S-3
[8] = SMMC-7721, 48 h, Table 1, 7-hydroxy derivatives of S-3
[9] = A549, 48 h, Table 1, 7-hydroxy derivatives of S-3
[10] = MCF7, 48 h, Table 1, 7-hydroxy derivatives of S-3
[11] = SW480, 48 h, Table 1, 7-hydroxy derivatives of S-3, read-out: IC50 SW-480
[12] = Table 7 (second), derivatives modified on 7-hydroxyl of S-3, HEK293T, Wnt3a conditioned medium
[13] = HL-60, 48 h, Table 3, single Michael reaction acceptor, modified lactonic ring
[14] = SMMC-7721, 48 h, Table 3, single Michael reaction acceptor, modified lactonic ring
[15] = A549, 48 h, Table 3, single Michael reaction acceptor, modified lactonic ring
[16] = MCF7, 48 h, Table 3, single Michael reaction acceptor, modified lactonic ring
[17] = SW480, 48 h, Table 3, single Michael reaction acceptor, modified lactonic ring, read-out: IC50 SW-480
[18] = SW480, 48 h, Table 6, 7-hydroxyl derivatives and controls, read-out: IC50 SW-480, 7-hydroxyl derivatives
[19] = Table 8, HEK293T, Wnt3a conditioned medium

With `C=C1C(=O)C23CC[C@H]1CC2[C@@]12CCC[C@@](C)(COC1=O)C2C[C@H]3OC(=O)c1ccccc1` (some centres unmarked) [Compound 1j] the IC50 [1, 7] was 2.99 µM, the IC50 [2, 8] was 0.74 µM and the IC50 [3, 9] was 2.97 µM. The IC50 [4, 10] was 3.71 µM, the IC50 [5, 11] was 3.95 µM and the IC50 [6, 12] was 14.7 ± 0.18 µM.

Work on `C=C1C(=O)C23CC[C@H]1CC2[C@@]12CCC[C@@](C)(COC1=O)C2C[C@H]3OC(=O)/C=C/c1ccccc1` (some centres unmarked) [Compound 1p] yielded an IC50 [1, 7] of 1.24 µM, an IC50 [2, 8] of 1.79 µM and an IC50 [3, 9] of 0.79 µM. For the same compound, the IC50 [4, 10] was 3.4 µM, the IC50 [5, 11] was 2.16 µM and the IC50 [6, 12] was 18.6 ± 1.26 µM.

`C=C1C(=O)[C@]23CC[C@H]1CC2[C@@]12CCC[C@@](C)(COC1=O)C2C[C@H]3OC(=O)CCl` (some centres unmarked) [Compound 1c] was tested, and the IC50 [1, 7] was 1.13 µM, the IC50 [2, 8] was 0.78 µM and the IC50 [3, 9] was 0.64 µM. For the same compound, the IC50 [4, 10] was 3.67 µM, the IC50 [5, 11] was 2.86 µM and the IC50 [6, 12] was 17.9 ± 0.98 µM.

`C=C1C(=O)[C@]23CC[C@H]1CC2[C@@]12CCC[C@@](C)(COC1)C2C[C@H]3O` (some centres unmarked) [Compound 25] gave an IC50 [1, 13] of 4.87 µM, an IC50 [2, 14] of 4.92 µM and an IC50 [3, 15] of 3.25 µM. For the same compound, the IC50 [4, 16] was 4 µM, the IC50 [5, 17] was 6.33 µM and the IC50 [5, 18] was 4.12 µM. The IC50 [6, 19] was 21.7 ± 0.63 µM.

In the case of `C=C1C(=O)[C@]23CC[C@H]1CC2[C@@]12CCC[C@@](C)(COC1)C2[C@H](COS(C)(=O)=O)C3=O` (some centres unmarked) [Compound 32], the IC50 ([1]; HL-60, 48 h, Table 2, derivatives having potential Michael reaction acceptor) is reported as 3.45 µM, the IC50 ([2]; SMMC-7721, 48 h, Table 2, derivatives having potential Michael reaction acceptor) is reported as 3.12 µM and the IC50 ([3]; A549, 48 h, Table 2, derivatives having potential Michael reaction acceptor) is reported as 2.22 µM. The IC50 ([4]; MCF7, 48 h, Table 2, derivatives having potential Michael reaction acceptor) was 2.02 µM, the IC50 ([5]; SW480, 48 h, Table 2, derivatives having potential Michael reaction acceptor, read-out: IC50 SW-480) was 1.58 µM and the IC50 ([6]; Table 10, HEK293T, Wnt3a conditioned medium) was 19.8 ± 1.04 µM.

`C=C1C(=O)[C@]23CC[C@H]1CC2[C@@]12CCC[C@@](C)(CO[C@H]1OC)C2C[C@H]3O` (some centres unmarked) [Compound 21] gave an IC50 [1, 13] of 4.2 µM, an IC50 [2, 14] of 1.87 µM and an IC50 [3, 15] of 3.17 µM. It also gave an IC50 [4, 16] of 5.04 µM, an IC50 [5, 17] of 4.19 µM and an IC50 [5, 18] of 2.9 µM. For the same compound, the IC50 [6, 19] was 27.4 ± 0.98 µM.

`C=C1C(=O)[C@]23CC[C@H]1CC2[C@@]12CCC[C@@](C)(CN(CCO)C1)C2CC3=O` (some centres unmarked) [Compound 91] showed an IC50 ([1]; HL-60, Table 7 (first), alkaloid derivatives, 48 h) of 14.3 µM, an IC50 ([2]; SMMC-7721, Table 7 (first), alkaloid derivatives, 48 h) of 15.2 µM and an IC50 ([3]; A549, Table 7 (first), alkaloid derivatives, 48 h) of 9.24 µM. The IC50 ([4]; MCF7, Table 7 (first), alkaloid derivatives, 48 h) was 15.7 µM, the IC50 ([5]; SW480, Table 7 (first), alkaloid derivatives, 48 h, read-out: IC50 SW-480) was 11.8 µM and the IC50 [6] was 49.4 ± 1.42 µM.

`C=C1C(=O)[C@]23CC[C@H]1CC2[C@@]12CCC[C@@](C)(COC1=O)C2C[C@H]3OC(C)=O` (some centres unmarked) [Compound 1b] gave an IC50 [1, 7] of 1.46 µM, an IC50 [2, 8] of 3.6 µM and an IC50 [3, 9] of 2.83 µM. The IC50 [4, 10] was 3.48 µM, the IC50 [5, 11] was 3.44 µM and the IC50 [6, 12] was 14.2 ± 0.67 µM.
